Legend:
Parameters in all cases: species or system AML cell lines (8); Primary HTS, single concentration about 10 uM, Cell Titer Glo viability; log10 luminescence, per cent inhibition relative to cycloheximide control
Conditions in all cases: 72 h, relative to cycloheximide control, log10 luminescence; inhibitor
CMK = tested on: CMK
ML-2 = tested on: ML-2
U937 = tested on: U937
MV4-11 = tested on: MV4-11
CMS = tested on: CMS
MOLM-13 = tested on: MOLM-13
M07e = tested on: M07e
CHRF288-11 = tested on: CHRF288-11

Row | SMILES | CMK %inh (CMK) | ML-2 %inh (ML-2) | U937 %inh (U937) | MV4-11 %inh (MV4-11) | CMS %inh (CMS) | MOLM-13 %inh (MOLM-13) | M07e %inh (M07e) | CHRF288-11 %inh (CHRF288-11)
1 | N#Cc1ccc(C(=O)c2cnn(-c3ccc(F)cc3)c2N)cc1 [SJ000580987-1] | -2.255% | -0.9573% | 0.0125% | -4.232% | 0.4553% | -1.146% | -1.432% | -3.381%
2 | Cn1c(=O)c(Oc2cccc(F)c2)cc2cnc(NC3CCOCC3)nc21 [SJ000580988-1] | 1.711% | -0.3057% | 1.883% | 0.1701% | 1.491% | 93.55% | 0.7165% | 0.6759%
3 | CC(=O)N1CCC(Nc2ncc3cc(Oc4ccc(F)cc4F)c(=O)n(C)c3n2)CC1 [SJ000580990-1] | 3.354% | -1.665% | 4.841% | 0.8846% | 0.4119% | -1.534% | 1.958% | 0.9354%
4 | Fc1ccc(-c2c(-c3ccncc3)[nH]c3nccnc23)cc1 [SJ000580991-1] | 11.62% | -4.337% | 0.7484% | -5.653% | 2.205% | -0.4618% | -1.27% | 0.1739%
5 | Nc1c(C(=O)c2cccc(CCC3(O)CCCC3)c2)cnn1-c1ccc(F)cc1 [SJ000580994-1] | 2.532% | -0.2918% | 3.468% | 2.023% | 0.1004% | 0.5318% | 2.495% | 5.85%
6 | Cn1cc(C2=C(c3cn(CCCO)c4ccccc34)C(=O)NC2=O)c2ccccc21 [SJ000580995-1] | 64.37% | -3.665% | 2.993% | 37.67% | 6.597% | 52.73% | 3.572% | 44.69%
7 | CCCCCNC(=O)[C@@H]1CCCN2C(=O)CC[C@H](NC(=O)[C@H](Cc3ccc(OP(=O)(O)O)cc3)NC(C)=O)C(=O)N12 [SJ000580996-1] | -6.908% | -1.38% | 0.5533% | -4.998% | -2.301% | -0.4821% | -1.329% | -2.344%
8 | COc1ccc(CCN=C2NC(=O)/C(=C/c3ccc4ncccc4c3)S2)cc1 [SJ000580998-1] | -3.047% | -1.934% | 0.5801% | -1.039% | -0.7764% | 2.923% | 1.057% | -1.93%
9 | CNCC#Cc1c(F)ccc2c1/C(=C/c1[nH]ccc1OC)C(=O)N2 [SJ000580999-1] | 104.6% | 60.28% | 85.1% | 85.05% | 90.97% | 105.9% | 73.32% | 56.9%
10 | O=C1NC(O)C(c2c[nH]c3ccccc23)=C1c1c[nH]c2ccccc12 (stereo not drawn) [SJ000581000-1] | -1.548% | -2.056% | -0.5983% | 0.3489% | -2.539% | -0.2184% | -1.63% | 3.04%
11 | Cn1cc(C2=C(Oc3ccccc3)C(=O)NC2=O)c2ccccc21 [SJ000581001-1] | -0.6422% | -1.623% | 0.6544% | -0.8354% | -3.067% | -0.02006% | -0.2429% | -2.432%
12 | Nc1c(C(=O)c2cccc(-c3cccnc3)c2)cnn1-c1ccc(F)cc1F [SJ000581002-1] | 96.76% | 15.07% | 25.61% | 0.1873% | 5.431% | 19.66% | 15.2% | 23.74%
13 | COc1ccc(C2=C(c3cn(C)c4ccccc34)C(=O)NC2=O)cc1OC [SJ000581003-1] | 38.95% | -1.913% | 6.689% | 4.678% | 5.298% | 0.7842% | -0.2143% | 6.661%
14 | O=C1NC(=N[C@@H](CO)c2ccccc2)S/C1=C\c1ccc2ncccc2c1 [SJ000581004-1] | 55.48% | 3.929% | 9.087% | 41.34% | 4.436% | 24.69% | 12.47% | 15.94%
15 | O=C1NC(=N[C@H](CO)c2ccccc2)S/C1=C\c1ccc2ncccc2c1 [SJ000581004-2] | 28.24% | 2.475% | 9.058% | 3.175% | 2.583% | 7.874% | 10.69% | 1.03%
16 | Nc1c(C(=O)c2cccc(C#CCO)c2)cnn1-c1ccc(F)cc1 [SJ000581005-1] | -3.113% | -1.489% | -1.339% | -2.436% | 3.189% | -0.3055% | 1.15% | -2.428%
17 | O=C1NC(=NCc2ccccn2)S/C1=C\c1ccc2ncccc2c1 [SJ000581006-1] | 2.326% | -0.04041% | 2.876% | 1.986% | -0.1401% | 6.642% | 3.262% | -1.509%
18 | Cn1cc(C2=C(c3c4n(c5ccccc35)CCCCC4)C(=O)NC2=O)c2ccccc21 [SJ000581007-1] | 2.966% | -3.106% | -0.6469% | -1.05% | -2.233% | -0.4157% | 0.1866% | -2.847%
19 | Cn1cc(C2=C(c3cccc(NCC(O)CO)c3)C(=O)NC2=O)c2cc(Cl)ccc21 (stereo not drawn) [SJ000581009-1] | 105.4% | 10.75% | 8.397% | 70.02% | 98.55% | 37.38% | 19.12% | 28.92%
20 | Cn1cc(C2=C(c3cn(CCCCCO)c4ccccc34)C(=O)NC2=O)c2ccccc21 [SJ000581010-1] | 27.55% | -1.548% | -0.3264% | -1.111% | 1.022% | 6.709% | 1.341% | 17.96%
21 | Cn1cc(C2=C(c3cn(CCCN=C(N)N)c4ccccc34)C(=O)NC2=O)c2ccccc21 [SJ000581011-1] | -5.09% | 1.035% | -0.6406% | 6.352% | -3.925% | 3.172% | -0.6273% | 6.037%
22 | Cc1cc(C)c2c(n1)sc1c(N)ncnc12 [SJ000581012-1] | -2.956% | -0.0326% | 3.328% | -4.498% | 2.019% | -1.383% | -1.463% | 1.655%
23 | COc1cc[nH]c1/C=C1\C(=O)Nc2ccc(F)c(C#CC3(O)CCNCC3)c21 [SJ000581013-1] | 93.46% | 57.56% | 80.6% | 81.96% | 92.23% | 105.4% | 109.1% | 71.86%
24 | COc1cccc(C(=O)c2sc(Nc3ccc(N4CCN(C(C)C)CC4)cc3)nc2N)c1 [SJ000581014-1] | 33.11% | 8.496% | 25.4% | 15.32% | 7.49% | 103.8% | 8.945% | 15.68%

From paper PMC6522510 (Nature Communications, 2019)
